Test results reported in US20210253635A1, “PEPTIDIC PROTEIN KINASE C INHIBITORS AND USES THEREOF” (UNIVERSITE DE GENEVE, priority 2018, published 2021).
Ends that are not written are not given here. * marks the point of attachment. Myristoyl = CCCCCCCCCCCCCC(=O)*

How the values were obtained:
[1] = test system: non-small cell lung cancer (NSCLC); conditions: NSCLC patients, compared to chemotherapies, before resistance appears; cited from earlier work
[2] = test system: nasal epithelial monolayers (Mucilair human primary nasal epithelial cells); assay: FITC insulin permeabilization (apical to basolateral) across epithelial monolayer; type: cell-based; conditions: peptide 50 μM, apical side, compared to control (vehicle), FIG. 2
Source text: To assess the potential effects of peptides of the invention on the permeabilization of therapeutic molecules, FITC Insulin (Sigma-Aldrich, Buchs SG, Switzerland) is used as a model for assessing paracellular drug transport (apical to basolateral) across the epithelial monolayer.
Mucilair™ human primary nasal and bronchial epithelial cells (Epithelix sarl, Geneva, Switzerland) and Caco-2 human intestinal epithelial cells are used (Huang et. al., 2013, Toxicol. in Vitro 27: 1151-1156).
Before each experiment, the culture medium is removed from each compartment and the monolayer is washed once with 200 μl of saline (0.9%) and once with warm Hanks' Balanced Salt Solution (HBSS) (37° C.). In the basolateral compartment, 600 μL of pre-warmed HBSS is placed and the cells are returned to the incubator at 37° C. for 30 minutes to equilibrate. After equilibration, the peptides of the invention and the paracellular marker (FITC insulin) are applied to the apical side of an epithelial monolayer. Peptides P4 (SEQ ID NO: 2) and P3 (SEQ ID NO: 4) according to the invention are tested in comparison with a comparative peptide CP4 (SEQ ID NO: 3).
All peptides are used at a final concentration of 50 μM. The vehicle is used as a control (CTRL). The FD solution is added to the apical compartment to make a final volume of 200 μl. […] The fluorescence of FD is measured in black 96-well plates using a fluorescence plate reader (BioTek Synergy Mx plate reader, BioTek Instruments GmbH, Lucerne, Switzerland), using excitation and emission wavelengths of 485 and 520 nm, respectively. Cumulative release (ng) corresponds to the actual amount of drug released cumulatively and corresponds to the amount in the suspension medium at any time plus the amount of the drug lost during each sampling.

[3] = test system: Mucilair human primary nasal epithelial cells; assay: Trans-epithelial electrical resistance (TEER), epithelial integrity; type: cell-based; conditions: peptide 100 μM, apical, FIG. 1
Description: Trans-epithelial electrical resistance (TEER): After addition of 200 μl of culture medium to the apical compartment of the tissue cultures, resistance is measured across cultures with an EVOMX volt-ohm-meter (World Precision Instruments UK, Stevenage) in triplicate for each time point. The TEER values (Ω) is converted normalized by using the following formula: TEER (Ω cm^2)=(resistance value (Ω)−100 (Ω))×0.33 (cm^2), where 100Ω is the resistance of the membrane and 0.33 cm^2 is the total surface of the epithelium.
To assess the potential effects of peptides of the invention on the epithelial integrity, transepithelial electrical resistance in the presence of a peptide of the invention is measured. Trans-epithelial electrical resistance (TEER) was measured as in Example 2 except that volt-ohm-meter was equipped with STX-2 chopstick electrodes (WPI, Sarasota, Fla., USA). Mucilair™ human primary nasal epithelial cells were used as in Example 2 (from single donor; EP01-Batch number MD069201). The peptide P4 (SEQ ID NO: 2) and comparative peptide […] both at a concentration of 100 μM in Mucilair™ medium and control solution (i.e., 50 μl of saline+50 μl of Mucilair™ medium) were administered to the apical compartment of the tissue cultures at the begging of the experiment (t=0) and the measurements were made after 20, 40, 60 and 80 minutes (t=20 min, t=40 min, t=60 min and t=80 min) of the incubation. All TEER values are expressed as percentage relative to control (the baseline value was 242 Ω*cm^2). All the experiments were performed at least 2 times (test 1 and 2).

COc1cc2ncnc(Nc3ccc(F)c(Cl)c3)c2cc1OCCCN1CCOCC1 [Gefitinib, N-(3-Chloro-4-fluorophenyl)-7-methoxy-6-(3-morpholinopropoxy) quinazolin-4-amine]
progression free survival (PFS) [1]: 7.7-12.9 months

Myr-AKRWR (Myristoyl-AKRWR) [CP4, comparative peptide, L-amino acid version of P4, reference compound]
permeabilization of FITC-conjugated insulin (cumulative release) [2]: slightly increased the permeabilization

Myr-D-Ala D-Arg D-Arg D-Trp D-Arg [Peptide P3]
permeabilization of FITC-conjugated insulin (cumulative release) [2]: increased the permeabilization of insulin FITC to a much larger extend than the control peptide CP4

Myr-D-Ala D-Lys D-Arg D-Trp D-Arg [Peptide P4]
permeabilization of FITC-conjugated insulin (cumulative release) [2]: increased the permeabilization of insulin FITC to a much larger extend than the control peptide CP4 | TEER values (percentage relative to control) ([3]; t=20 min): decreased TEER values as compared to control solution and comparative peptide P4 (CP4) | TEER values (percentage relative to control) ([3]; t=40 min and t=60 min): this effect persisted | TEER values (percentage relative to control) ([3]; t=80 min): TEER values increased as compared to values measured at previous time points
